Experimental data from patent US11020399B2, “Intermediates useful in the synthesis of compounds as modulators of protein kinases” (Rhizen Pharmaceuticals SA, priority 2011, dated 2021).

What was measured:
Format in all cases: biochemical
PI3kα = PI3kα (Homo sapiens, UniProt P42336); assay: Fluorescent (HTRF) determination of PI3 kinase enzyme activity, PI3Kα
Source text: (§1) Assay 1: Fluorescent Determination of PI3Kinase Kinase Enzyme Activity
(§2) Phosphoinositide 3 kinases (PI3K) belong to a class of lipid kinases that play a critical role in the regulation of several key cellular processes. The PI3K are capable of phosphorylating the 3-hydroxy position of phosphoinositols thereby generating second messengers involved in downstream signalling events. The homogenous time resolved fluorescence (HTRF) assay allows detection of 3,4,5-triphosphate (PIP3) formed as a result of phosphorylation of phosphotidylinositol 4,5-biphosphate (PIP2) by PI3K isoforms such as α, β, γ or δ. PI3K isoform activity for a, p, y or 8 was determined using a PI3K human HTRF™ Assay Kit (Millipore, Billerica, Mass.) with modifications. All incubations were carried out at room temperature. Briefly, 0.5 μl of 40× inhibitor (in 100% DMSO) or 100% DMSO were added to each well of a 384-well black plate (Greiner Bio-One, Monroe, N.C.) containing 14.5 μl IX reaction buffer /PIP2 (10 mM MgCl2, 5 mM DTT, 1.38 μM PIP2) mix with or without enzyme and incubated for 10 min. After the initial incubation, 5 μl/well of 400 μM ATP was added and incubated for an additional 30 minutes. Reaction was terminated by adding 5 μl/well stop solution (Millipore, Billerica, Mass.). Five microliters of detection mix (Millipore, Billerica, Mass.) were then added to each well and was incubated for 6-18 h in the dark. HRTF ratio was measured on a microplate reader (BMG Labtech., Germany) at an excitation wavelength of 337 nm and emission wavelengths of 665 and 620 nm with an integration time of 400 μsec.
(§3) Data were analyzed using Graphpad Prism (Graphpad software; San Diego Calif.) for IC50 determination. Examples 1-59 were tested at 1 uM for Pi3kα & Pi3k β and at 0.3 uM for γ and δ. Examples 60-137 were tested at 1 uM for Pi3kα & Pi3k β and at 0.1 uM for γ and δ. Percent inhibition was calculated based on the values for the blank and enzyme controls. The results are as provided in Table 2 (wherein D=0 to 25%; C=>25 to 50%; B=>50 to 75%; A=>75 to 100%; +++++=≤50 nM; ++++=>50 to ≤100 nM; +++=>100 to ≤300 nM; ++=>300 to ≤500 nM; +=>500 nM)

PI3kβ = PI3kβ (Homo sapiens, UniProt P42338); assay: Fluorescent (HTRF) determination of PI3 kinase enzyme activity, PI3Kβ
Source text: as §1, §2, §3

PI3kγ = PI3kγ (Homo sapiens, UniProt P48736); assay: Fluorescent (HTRF) determination of PI3 kinase enzyme activity, PI3Kγ; details: for inhibition at 0.3 µM: 300 nM (Examples 1-59); for inhibition at 0.1 µM: 100 nM (Examples 60-137)
Source text: as §1, §2, §3

PI3kδ = PI3kδ (Homo sapiens, UniProt O00329); assay: Fluorescent (HTRF) determination of PI3 kinase enzyme activity, PI3Kδ; details: for inhibition at 0.3 µM: 300 nM (Examples 1-59); for inhibition at 0.1 µM: 100 nM (Examples 60-137)
Source text: as §1, §2, §3

Chain of PI3kβ (P42338 whole entry): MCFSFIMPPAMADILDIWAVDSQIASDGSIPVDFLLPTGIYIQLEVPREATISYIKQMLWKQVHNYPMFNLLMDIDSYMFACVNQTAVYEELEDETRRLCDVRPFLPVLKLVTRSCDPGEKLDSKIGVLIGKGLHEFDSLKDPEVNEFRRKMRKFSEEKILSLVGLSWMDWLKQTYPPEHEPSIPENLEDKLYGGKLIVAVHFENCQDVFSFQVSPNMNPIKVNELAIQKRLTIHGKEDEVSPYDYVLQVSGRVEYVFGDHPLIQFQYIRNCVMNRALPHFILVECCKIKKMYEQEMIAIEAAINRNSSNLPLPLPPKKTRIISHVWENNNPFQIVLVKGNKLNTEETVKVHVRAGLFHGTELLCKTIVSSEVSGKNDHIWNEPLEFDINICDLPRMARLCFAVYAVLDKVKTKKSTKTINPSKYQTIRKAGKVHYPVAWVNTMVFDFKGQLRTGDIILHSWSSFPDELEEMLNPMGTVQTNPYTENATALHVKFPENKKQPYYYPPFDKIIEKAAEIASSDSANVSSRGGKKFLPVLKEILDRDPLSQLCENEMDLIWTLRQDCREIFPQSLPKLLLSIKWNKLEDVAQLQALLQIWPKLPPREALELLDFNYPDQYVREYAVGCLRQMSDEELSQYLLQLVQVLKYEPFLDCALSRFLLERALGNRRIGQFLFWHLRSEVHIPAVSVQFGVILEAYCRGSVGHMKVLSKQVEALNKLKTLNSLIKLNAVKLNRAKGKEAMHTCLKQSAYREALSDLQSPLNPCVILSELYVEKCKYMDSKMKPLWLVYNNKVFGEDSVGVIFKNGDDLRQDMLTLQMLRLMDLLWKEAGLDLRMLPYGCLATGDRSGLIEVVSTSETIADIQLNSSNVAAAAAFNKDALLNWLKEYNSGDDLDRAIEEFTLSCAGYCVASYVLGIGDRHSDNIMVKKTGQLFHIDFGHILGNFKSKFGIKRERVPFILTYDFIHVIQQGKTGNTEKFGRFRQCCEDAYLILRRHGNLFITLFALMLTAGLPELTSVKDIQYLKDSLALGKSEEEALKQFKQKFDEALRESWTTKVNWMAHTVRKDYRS
Chain of PI3kβ (P27986 whole entry partner): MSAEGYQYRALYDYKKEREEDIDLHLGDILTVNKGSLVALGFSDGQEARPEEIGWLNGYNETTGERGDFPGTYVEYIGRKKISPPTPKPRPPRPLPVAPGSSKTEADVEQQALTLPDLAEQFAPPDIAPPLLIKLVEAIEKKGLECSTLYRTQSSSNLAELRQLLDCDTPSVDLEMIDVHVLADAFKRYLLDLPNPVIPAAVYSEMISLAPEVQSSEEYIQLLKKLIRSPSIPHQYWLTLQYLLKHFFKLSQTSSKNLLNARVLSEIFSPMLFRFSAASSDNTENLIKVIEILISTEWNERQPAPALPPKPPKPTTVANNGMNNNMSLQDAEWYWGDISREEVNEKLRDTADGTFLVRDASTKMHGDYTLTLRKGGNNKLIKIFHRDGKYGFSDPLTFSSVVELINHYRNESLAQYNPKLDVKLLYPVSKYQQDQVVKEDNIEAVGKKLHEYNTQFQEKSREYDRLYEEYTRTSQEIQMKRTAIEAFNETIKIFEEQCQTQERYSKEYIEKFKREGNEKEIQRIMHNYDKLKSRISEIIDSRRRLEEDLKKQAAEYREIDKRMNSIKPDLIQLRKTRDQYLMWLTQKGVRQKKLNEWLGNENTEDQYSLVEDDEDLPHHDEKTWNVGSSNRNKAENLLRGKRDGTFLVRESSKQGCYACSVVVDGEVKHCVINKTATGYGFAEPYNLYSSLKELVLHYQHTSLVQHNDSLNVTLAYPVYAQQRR
Chain of PI3kα (P42336 whole entry): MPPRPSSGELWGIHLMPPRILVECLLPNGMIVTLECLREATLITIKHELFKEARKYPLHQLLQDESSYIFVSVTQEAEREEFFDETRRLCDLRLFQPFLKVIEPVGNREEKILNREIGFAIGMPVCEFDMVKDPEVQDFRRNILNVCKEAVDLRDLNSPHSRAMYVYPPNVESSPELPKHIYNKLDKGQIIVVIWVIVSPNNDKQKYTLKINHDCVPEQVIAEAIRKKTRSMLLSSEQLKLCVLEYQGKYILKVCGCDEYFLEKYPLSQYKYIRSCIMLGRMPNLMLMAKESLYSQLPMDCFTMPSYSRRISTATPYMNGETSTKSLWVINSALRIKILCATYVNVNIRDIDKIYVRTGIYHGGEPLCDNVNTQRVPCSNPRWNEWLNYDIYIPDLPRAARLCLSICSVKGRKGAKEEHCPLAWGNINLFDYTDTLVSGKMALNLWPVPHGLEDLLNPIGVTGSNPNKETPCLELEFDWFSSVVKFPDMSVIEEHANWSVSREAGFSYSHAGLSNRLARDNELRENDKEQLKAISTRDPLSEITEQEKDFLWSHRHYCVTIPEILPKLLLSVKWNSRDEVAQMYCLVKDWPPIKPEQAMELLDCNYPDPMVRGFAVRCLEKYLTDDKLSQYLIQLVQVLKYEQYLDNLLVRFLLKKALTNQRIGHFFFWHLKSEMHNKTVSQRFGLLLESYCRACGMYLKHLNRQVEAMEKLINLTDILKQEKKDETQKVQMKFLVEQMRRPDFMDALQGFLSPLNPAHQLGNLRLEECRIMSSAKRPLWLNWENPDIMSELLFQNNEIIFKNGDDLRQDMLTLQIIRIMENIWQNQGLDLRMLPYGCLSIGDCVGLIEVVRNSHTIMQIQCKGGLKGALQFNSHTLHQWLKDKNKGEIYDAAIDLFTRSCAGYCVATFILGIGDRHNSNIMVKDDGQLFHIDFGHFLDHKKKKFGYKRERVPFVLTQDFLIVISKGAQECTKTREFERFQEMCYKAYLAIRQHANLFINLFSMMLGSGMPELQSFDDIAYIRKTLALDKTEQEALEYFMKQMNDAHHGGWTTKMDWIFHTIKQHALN
Chain of PI3kα (P27986 whole entry partner): as the sequence (P27986 whole entry partner) above
Chain of PI3kδ (O00329 whole entry): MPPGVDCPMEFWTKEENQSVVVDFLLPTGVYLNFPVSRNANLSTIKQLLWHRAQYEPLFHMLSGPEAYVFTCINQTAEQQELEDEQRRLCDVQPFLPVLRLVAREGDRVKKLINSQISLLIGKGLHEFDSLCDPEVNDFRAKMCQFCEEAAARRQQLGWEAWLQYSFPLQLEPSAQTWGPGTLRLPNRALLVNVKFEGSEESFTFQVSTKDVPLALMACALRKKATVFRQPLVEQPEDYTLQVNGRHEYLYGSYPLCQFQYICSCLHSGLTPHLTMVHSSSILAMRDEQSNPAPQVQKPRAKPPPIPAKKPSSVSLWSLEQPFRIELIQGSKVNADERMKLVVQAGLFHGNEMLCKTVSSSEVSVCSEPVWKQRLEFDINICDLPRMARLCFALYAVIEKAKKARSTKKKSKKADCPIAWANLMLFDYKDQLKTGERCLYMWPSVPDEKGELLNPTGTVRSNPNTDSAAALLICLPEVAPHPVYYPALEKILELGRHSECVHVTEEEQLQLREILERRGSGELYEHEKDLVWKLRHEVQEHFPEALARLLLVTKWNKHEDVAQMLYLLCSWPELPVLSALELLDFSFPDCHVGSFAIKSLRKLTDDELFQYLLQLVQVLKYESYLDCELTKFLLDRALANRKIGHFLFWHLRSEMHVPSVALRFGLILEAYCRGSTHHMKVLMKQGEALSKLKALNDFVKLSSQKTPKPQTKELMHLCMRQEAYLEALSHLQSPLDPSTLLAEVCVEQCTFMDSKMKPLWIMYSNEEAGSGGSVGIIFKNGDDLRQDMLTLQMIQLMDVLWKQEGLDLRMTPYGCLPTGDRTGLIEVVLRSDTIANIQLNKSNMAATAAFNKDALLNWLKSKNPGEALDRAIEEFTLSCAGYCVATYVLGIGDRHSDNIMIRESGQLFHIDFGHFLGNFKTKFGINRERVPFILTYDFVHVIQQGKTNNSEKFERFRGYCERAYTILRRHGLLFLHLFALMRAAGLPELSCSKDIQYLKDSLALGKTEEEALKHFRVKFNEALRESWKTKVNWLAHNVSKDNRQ
Chain of PI3kδ (P27986 whole entry partner): as the sequence (P27986 whole entry partner) above
Chain of PI3kγ (P48736 whole entry): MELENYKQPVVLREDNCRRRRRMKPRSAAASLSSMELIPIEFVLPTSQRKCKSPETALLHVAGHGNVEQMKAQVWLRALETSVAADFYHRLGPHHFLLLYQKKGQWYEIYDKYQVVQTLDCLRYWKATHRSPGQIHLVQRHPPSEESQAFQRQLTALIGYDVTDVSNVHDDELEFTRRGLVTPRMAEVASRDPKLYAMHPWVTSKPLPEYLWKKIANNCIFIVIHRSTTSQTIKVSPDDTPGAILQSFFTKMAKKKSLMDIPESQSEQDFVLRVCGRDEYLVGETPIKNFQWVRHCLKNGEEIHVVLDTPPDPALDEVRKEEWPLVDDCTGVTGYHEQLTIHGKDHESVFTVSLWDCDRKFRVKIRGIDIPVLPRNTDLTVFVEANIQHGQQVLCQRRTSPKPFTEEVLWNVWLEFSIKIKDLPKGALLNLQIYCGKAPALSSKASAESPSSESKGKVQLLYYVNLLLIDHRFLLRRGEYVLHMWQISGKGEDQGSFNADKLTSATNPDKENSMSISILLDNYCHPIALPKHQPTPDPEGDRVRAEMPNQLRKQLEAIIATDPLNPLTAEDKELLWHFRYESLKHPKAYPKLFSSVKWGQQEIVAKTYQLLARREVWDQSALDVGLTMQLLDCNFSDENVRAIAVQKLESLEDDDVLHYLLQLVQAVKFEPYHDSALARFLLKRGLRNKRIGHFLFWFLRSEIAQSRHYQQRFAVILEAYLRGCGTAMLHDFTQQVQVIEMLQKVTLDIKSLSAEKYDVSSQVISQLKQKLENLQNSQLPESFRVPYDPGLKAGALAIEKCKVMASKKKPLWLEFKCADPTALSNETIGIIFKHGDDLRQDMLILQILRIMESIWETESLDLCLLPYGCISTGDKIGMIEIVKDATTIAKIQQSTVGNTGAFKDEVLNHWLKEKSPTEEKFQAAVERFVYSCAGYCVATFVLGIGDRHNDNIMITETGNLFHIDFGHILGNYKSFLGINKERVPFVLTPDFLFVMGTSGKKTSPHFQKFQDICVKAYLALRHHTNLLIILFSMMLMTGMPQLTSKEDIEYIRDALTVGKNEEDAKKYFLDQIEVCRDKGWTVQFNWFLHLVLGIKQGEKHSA

Row | inhibition at 1 µM (PI3kα) | inhibition at 1 µM (PI3kβ) | IC50 (PI3kγ) | inhibition at 0.3 µM (PI3kγ) | IC50 (PI3kδ) | inhibition at 0.3 µM (PI3kδ) | % inhibition (PI3kα) 1 uM (PI3kα) | % inhibition (PI3kβ) 1 uM (PI3kβ) | inhibition at 0.1 µM (PI3kγ) | inhibition at 0.1 µM (PI3kδ) | IC50 (PI3kα; numeric values) | IC50 (PI3kβ) | Compound
1 | 25 to 50% | 25 to 50% |  | 50 to 75% |  | 50 to 75% |  |  |  |  |  |  | CSc1nn(C(C)c2oc3cccc(F)c3c(=O)c2-c2cccc(F)c2)c2ncnc(N)c12 (centres unmarked) [Example 41, 2-(1-(4-amino-3-(methylthio)-1H-pyrazolo[3,4-d]pyrimidin-1-yl)ethyl)-5-fluoro-3-(3-fluorophenyl)-4H-chromen-4-one]
2 | 0 to 25% | 25 to 50% |  | 50 to 75% |  | 50 to 75% |  |  |  |  |  |  | CC(c1oc2cccc(F)c2c(=O)c1-c1cccc(F)c1)n1ncc2c(N(C)C)ncnc21 (centres unmarked) [Example 28, 2-(1-(4-(dimethylamino)-1H-pyrazolo[3,4-d]pyrimidin-1-yl)ethyl)-5-fluoro-3-(3-fluorophenyl)-4H-chromen-4-one]
3 |  |  |  | 50 to 75% |  | 0 to 25% | D (D=0 to 25%) | B (B=>50 to 75%) |  |  |  |  | CC(c1oc2cccc(F)c2c(=O)c1-c1ccccc1)n1nc(-c2ccc(OC(F)F)c(F)c2)c2c(N)ncnc21 (centres unmarked) [Example 32, 2-(1-(4-amino-3-(4-(difluoromethoxy)-3-fluorophenyl)-1H-pyrazolo[3,4-d]pyrimidin-1-yl)ethyl)-5-fluoro-3-phenyl-4H-chromen-4-one]
4 | 50 to 75% | 25 to 50% | 100 to 300 nM |  |  |  |  |  | 50 to 75% | 0 to 25% |  |  | CC(C)Oc1ccc(-c2nn(C(C)c3oc4cccc(F)c4c(=O)c3-c3ccccc3)c3ncnc(N)c23)cc1F (single isomer, unassigned) [Example 101]
5 |  | 50 to 75% |  |  |  |  | C (C=>25 to 50%) |  | 25 to 50% | 0 to 25% |  |  | CC(c1oc2cccc(F)c2c(=O)c1-c1ccccc1)n1nc(-c2ccc(OC(F)F)c(F)c2)c2c(N)ncnc21 (racemic) [Example 102, (S)/(R)-2-(1-(4-amino-3-(4-(difluoromethoxy)-3-fluorophenyl)-1H-pyrazolo[3,4-d]pyrimidin-1-yl)ethyl)-5-fluoro-3-phenyl-4H-chromen-4-one]
6 | 25 to 50% | 25 to 50% |  |  |  |  |  |  | 25 to 50% | 25 to 50% |  |  | CC(c1oc2cccc(F)c2c(=O)c1-c1ccc(F)cc1)n1nc(-c2ccc(OC(F)F)c(F)c2)c2c(N)ncnc21 (single isomer, unassigned) [Example 97]
7 | 0 to 25% | 0 to 25% |  | 25 to 50% |  | 25 to 50% |  |  |  |  |  |  | CC(c1oc2cccc(F)c2c(=O)c1-c1cccc(F)c1)n1nc(-c2ccc(OC3CN(C(c4ccccc4)c4ccccc4)C3)c(F)c2)c2c(N)ncnc21 (centres unmarked) [Example 44, 2-(1-(4-amino-3-(4-(1-benzhydrylazetidin-3-yloxy)-3-fluorophenyl)-1H-pyrazolo[3,4-d]pyrimidin-1-yl)ethyl)-5-fluoro-3-(3-fluorophenyl)-4H-chromen-4-one]
8 | 0 to 25% | 50 to 75% |  | 75 to 100% |  | 25 to 50% |  |  |  |  |  |  | CC(c1oc2cccc(F)c2c(=O)c1-c1cccc(F)c1)n1nc(-c2cc3ccccc3s2)c2c(N)ncnc21 (centres unmarked) [Example 36, 2-(1-(4-amino-3-(benzo[b]thiophen-2-yl)-1H-pyrazolo[3,4-d]pyrimidin-1-yl)ethyl)-5-fluoro-3-(3-fluorophenyl)-4H-chromen-4-one]
9 | 0 to 25% | 25 to 50% | ≤ 50 nM | 75 to 100% |  |  |  |  |  |  |  |  | CC(c1oc2cccc(F)c2c(=O)c1-c1cccc(F)c1)n1nc(-c2ccc(N3CCOCC3)c(F)c2)c2c(N)ncnc21 (centres unmarked) [Example 25, 2-(1-(4-amino-3-(3-fluoro-4-morpholinophenyl)-1H-pyrazolo[3,4-d]pyrimidin-1-yl)ethyl)-5-fluoro-3-(3-fluorophenyl)-4H-chromen-4-one]

Second part, the compound before the results:

Row | Compound | inhibition at 1 µM (PI3kα) | inhibition at 1 µM (PI3kβ) | IC50 (PI3kγ) | inhibition at 0.3 µM (PI3kγ) | IC50 (PI3kδ) | inhibition at 0.3 µM (PI3kδ) | % inhibition (PI3kα) 1 uM (PI3kα) | % inhibition (PI3kβ) 1 uM (PI3kβ) | inhibition at 0.1 µM (PI3kγ) | inhibition at 0.1 µM (PI3kδ) | IC50 (PI3kα; numeric values) | IC50 (PI3kβ)
10 | CC(c1oc2cccc(F)c2c(=O)c1-c1cccc(F)c1)n1nc(-c2cc3ccccc3o2)c2c(N)ncnc21 (centres unmarked) [Example 14, 2-(1-(4-amino-3-(benzofuran-2-yl)-1H-pyrazolo[3,4-d]pyrimidin-1-yl)ethyl)-5-fluoro-3-(3-fluorophenyl)-4H-chromen-4-one] | 25 to 50% | 0 to 25% | 50 to 100 nM | 75 to 100% | 50 to 100 nM | 75 to 100% |  |  |  |  |  | 
11 | Cc1n[nH]c2cc(-c3nn([C@H](C)c4oc5cccc(F)c5c(=O)c4-c4cccc(F)c4)c4ncnc(N)c34)ccc12 [Example 9b, (−)-2-(1-(4-amino-3-(3-methyl-1H-indazol-6-yl)-1H-pyrazolo[3,4-d]pyrimidin-1-yl)ethyl)-5-fluoro-3-(3-fluorophenyl)-4H-chromen-4-one] | 0 to 25% | 25 to 50% | 300 to 500 nM |  | 300 to 500 nM |  |  |  |  |  |  | 
12 | CC(C)Oc1ccc(-c2nn(C(C)c3oc4cccc(F)c4c(=O)c3-c3cn[nH]c3)c3ncnc(N)c23)cc1F (centres unmarked) [Example 18, 2-(1-(4-amino-3-(3-fluoro-4-isopropoxyphenyl)-1H-pyrazolo[3,4-d]pyrimidin-1-yl)ethyl)-5-fluoro-3-(1H-pyrazol-4-yl)-4H-chromen-4-one] | 0 to 25% | 0 to 25% |  | 50 to 75% | 50 to 100 nM | 75 to 100% |  |  |  |  |  | 
13 | CC(c1oc2cccc(F)c2c(=O)c1-c1cccc(F)c1)n1nc(-c2ccc(OC3CCOCC3)c(F)c2)c2c(N)ncnc21 (centres unmarked) [Example 19, 2-(1-(4-amino-3-(3-fluoro-4-(tetrahydro-2H-pyran-4-yloxy)phenyl)-1H-pyrazolo[3,4-d]pyrimidin-1-yl)ethyl)-5-fluoro-3-(3-fluorophenyl)-4H-chromen-4-one] | 25 to 50% | 25 to 50% |  | 75 to 100% |  | 50 to 75% |  |  |  |  |  | 
14 | CC(c1oc2cccc(F)c2c(=O)c1-c1cccc(F)c1)n1nc(-c2ccc(OC(F)F)c(F)c2)c2c(N)ncnc21 (centres unmarked) [Example 17, 2-(1-(4-amino-3-(4-(difluoromethoxy)-3-fluorophenyl)-1H-pyrazolo[3,4-d]pyrimidin-1-yl)ethyl)-5-fluoro-3-(3-fluorophenyl)-4H-chromen-4-one] | 0 to 25% | 25 to 50% |  | 25 to 50% |  | 75 to 100% |  |  |  |  |  | 
15 | CC(C)c1n[nH]c2cc(-c3nn(C(C)c4oc5cccc(F)c5c(=O)c4-c4cccc(F)c4)c4ncnc(N)c34)ccc12 (centres unmarked) [Example 20, 2-(1-(4-amino-3-(3-isopropyl-1H-indazol-6-yl)-1H-pyrazolo[3,4-d]pyrimidin-1-yl)ethyl)-5-fluoro-3-(3-fluorophenyl)-4H-chromen-4-one] | 0 to 25% | 25 to 50% |  | 0 to 25% | 50 to 100 nM | 75 to 100% |  |  |  |  |  | 
16 | CC(C)Oc1ccc(-c2nn(C(C)c3oc4cccc(F)c4c(=O)c3-c3cccc(F)c3)c3ncnc(N)c23)cc1F (centres unmarked) [Example 6, 2-(1-(4-amino-3-(3-fluoro-4-isopropoxyphenyl)-1H-pyrazolo[3,4-d]pyrimidin-1-yl)ethyl)-5-fluoro-3-(3-fluorophenyl)-4H-chromen-4-one] | 0 to 25% | 25 to 50% | 50 to 100 nM | 75 to 100% | ≤ 50 nM | 75 to 100% |  |  |  |  | > 10000 nM | 
17 | CC(C)Oc1ccc(-c2nn(C(C)c3oc4cccc(F)c4c(=O)c3-c3cccc(F)c3)c3ncnc(N)c23)cc1F (single isomer, unassigned; (-)) [Example 8, (−)-2-(1-(4-amino-3-(3-fluoro-4-isopropoxyphenyl)-1H-pyrazolo[3,4-d]pyrimidin-1-yl)ethyl)-5-fluoro-3-(3-fluorophenyl)-4H-chromen-4-one] |  |  | ≤ 50 nM |  | ≤ 50 nM |  | D (D=0 to 25%) | B (B=>50 to 75%) |  |  |  | 300 to 500 nM
18 | CC(c1oc2cccc(F)c2c(=O)c1-c1cccc(F)c1)n1nc(-c2ccc(N(C)C)c(F)c2)c2c(N)ncnc21 (centres unmarked) [Example 24, 2-(1-(4-amino-3-(4-(dimethylamino)-3-fluorophenyl)-1H-pyrazolo[3,4-d]pyrimidin-1-yl)ethyl)-5-fluoro-3-(3-fluorophenyl)-4H-chromen-4-one] | 0 to 25% | 50 to 75% |  | 25 to 50% |  |  |  |  |  |  |  | 
